One may read the CC50 as the concentration at which the toxic effect on the cells reaches its halfway point.

Data set [1] concerns the target T1, HIV RT (Human immunodeficiency virus type 1 group M subtype B, UniProt P04585).
T1 construct: HIV RT (final concentration, 1,200 nM)
Kind of data set: HIV-RT primer extension assay (chain termination). As to conditions: 1 µM each dNTP. The format is biochemical. The procedure:
The reaction protocol was adapted from previous work. Primers and template used for this assay are described in Fig 8A.
All reagent stocks were in a base assay buffer consisting of 50 mM Tris pH 7.5 and 50 mM NaCl in nuclease-free water. […] Samples were then heated to 95 °C for 10 min prior to storage at −20 °C until being resolved by polyacrylamide gel electrophoresis with 7 M urea.

For data set [2], the target named is T1, HIV RT. Kind of data set: Iron footprinting assay of RT translocation state. Type of data set: biochemical. As to conditions: 1 µM MK-8527-TP or ISL-TP, 5 µM ddATP; absence or presence of dTTP. As for the experimental part: The translocation state of RT was assessed with a site-specific iron footprinting assay adapted from previous work. Primer and template used for this assay are described in Fig 7A. The presence of Fe^2+ ions in the reaction generated hydroxyl radicals that cleaved the DNA template in a site-specific manner at the nucleotide closest to the RNase H active site. In addition to an RT inhibitor in the reaction, dTTP, the subsequent dNTP, was provided in dose titration to force the translocation of the 3′-primer terminus from the pre-translocation N-site to the post-translocation P-site.
(final concentration, 1 µM), or ddATP (final concentration, 5 µM), Td43/Pd30 pre-annealed primer and template (final concentration, 200 nM based on Cy3-labeled Td43 concentration), and dTTP titrated at various concentrations. All reagent stocks were in a base assay buffer consisting of 120 mM Tris pH 7.5, 20 mM NaCl, and 6 mM MgCl2 in nuclease-free water. […] The reaction was then heated to 37 °C for 5 min before quenching 1:1 with gel-loading dye followed by heating at 95 °C for 10 min. Samples were stored at −20 °C until being resolved by polyacrylamide gel electrophoresis with 7 M urea.

Data set [3] deals with HIV-1. The experiment in a line: Multicycle antiviral assay in MT4-GFP cells. Type of data set: cell-based. As to conditions: WT HIV-1, multicycle assay, 10% NHS. The procedure: Compounds were evaluated for their ability to prevent HIV-1 infection in MT4-GFP cells as described in Diamond, and colleagues. HIV-1 replication was monitored using the MT4-gag-GFP clone D3, and MT4 cells with a GFP reporter gene, the expression of which is dependent on the HIV-1 expressed proteins tat and rev. […] Proviral variants used for these studies were generated by site-directed mutagenesis in the WT R8 proviral plasmid. Virus was produced by transfection in 293T cells.
Briefly, MT4-GFP cells were cultured overnight with the appropriate HIV-1 variant at an approximate multiplicity of infection of 0.01. After approximately 19 h of infection, the cells were washed and resuspended in assay media containing 10% normal human serum (NHS) before being added to 384-well compound plates containing 10-point serial 3-fold dilutions of compound. Controls included no inhibitor (dimethyl sulfoxide [DMSO] only) and a combination of 3 antiviral agents, efavirenz, indinavir, and an integrase strand transfer inhibitor, L-002254051, at final concentrations of 4 µM each. The infected or treated cells were cultured at 37 °C, 5% CO2, and 90% humidity until evaluation of infection was conducted at approximately 48 and 72 h post-infection by counting the number of GFP cells in each well using an Acumen eX3 scanner (SPT Labtech; Melbourn, UK). The reproductive ratio, R, was calculated by dividing the number of infected cells at 72 h by the number at 48 h post-infection. The percentage inhibition caused by a test compound was calculated by the following formula:
inhibition = [1−(Rtest compound − Rpositive control)]/(RDMSO only − Rpositive control) × 100%\]
The dose–response curves of each test compound were plotted as percentage inhibition versus the test concentration.

Data set [4] concerns HIV-1.
The subject of data set [5] is HIV-1. Kind of data set: Single-cycle antiviral assay in PBMCs. As to conditions: HIV-1, single-cycle assay, human PBMCs, 10% NHS; read-out: PBMC IC50. Type of data set: cell-based. As for the experimental part: To evaluate the ability of inhibitors to prevent HIV-1 infection in primary cells, human PBMCs obtained from Biological Specialty Corporation (Colmar, PA, USA) were used to assess antiviral activity. The proviral variants used for these studies were generated by site-directed mutagenesis in a proviral vector derived from NL43 [52] that encodes GFP (pNLG1-P2A-GFP). Virus was produced by transfection in 293T cells.
PBMCs were activated with phytohemagglutinin (PHA) at 5 μg/mL in Roswell Park Memorial Institute (RPMI) 1640 medium containing 10% heat-inactivated fetal bovine serum (FBS) for 2–3 days. Compound plates were prepared by dispensing compounds dissolved in DMSO into 384-well poly-d-lysine-coated plates (0.2 μL per well) using an Echo acoustic dispenser (Labcyte; San Jose, CA, USA). Each compound was tested in a 10-point serial 3-fold dilution (typical final concentrations: 5,000 to 0.1 nM). Controls included no inhibitor (DMSO only) and a combination of 3 antiviral agents, efavirenz, indinavir, and the integrase strand transfer inhibitor, L-002254051, at final concentrations of 4 μM each. PHA-activated human PBMCs were washed and resuspended in RPMI 1640 containing 10% NHS and 30 units per mL of interleukin-2 (IL-2) at 6 × 10^5 cells per mL. PBMCs were added to the compound plates and cultured for 24 h at 37 °C, 5% CO2, and 90% humidity. The appropriate HIV-1 variant was added to the PBMCs and cultured at 37 °C, 5% CO2, and 90% humidity for an additional 24 h.
HIV-1–infected cells were quantified by counting the number of GFP cells in each well using an Acumen eX3 scanner (SPT Labtech; Melbourn, UK).

In the next data set the test system is MT4-GFP cells. The experiment in a line: CellTiter-Glo (CTG) cytotoxicity in MT4-GFP cells. As to conditions: read-out: MT4-GFP CTG CC50, CellTiter-Glo. Background: In ATP-based viability assays light output follows the ATP content of the culture.
Data set [6] concerns HIV-1. Kind of data set: microbe, parasite or virus in culture. As to conditions: for IC50: Human immunodeficiency virus 1, PBMC. As for the experimental part:
IC50 values were determined, and a persistence ratio was calculated for each compound. GFP, green fluorescent protein; hpi, hours post-infection; IC50, half maximal inhibitory concentration.
Assay media in each well were then evacuated and the cells resuspended using the gentle setting on the BlueWasher (BlueCatBio; Lebanon, NH, USA). Centrifugation and wash steps were repeated to ensure removal of extracellular compound.
MT4-GFP cells were infected with WT R8 virus, and PBMCs were infected with pNLG1-P2A-GFP. […] IC50 values were determined by nonlinear 4-parameter curve fitting of the data. A persistence ratio was calculated for each compound by dividing the IC50 from variable B (IC50B) by the IC50 from variable A (IC50A).

In data set [7] the test system is HIV-1. The experiment in a line: microbe, parasite or virus in culture.
Data set [8] is described as follows: CellTiter-Glo (CTG) cytotoxicity in MT4-GFP cells. As to conditions: human.
The subject of data set [9] is HIV-1. As to conditions: HIV-1, PBMCs; read-out: PBMC IC50; cited from earlier work.

Values joined by “and” are separate entries in the source; they are usually repeats but may differ in a detail not shown here. Equal entries are not always repeated. Where two headings read alike, the source gives them in different places. Where only a bound is given, the exact number is not on record here.

In the case of `Nc1ncnc2c1ncn2[C@H]1CC[C@@H](CO[P@@](=O)(O)O[P@](=O)(O)OP(=O)(O)O)O1` [ddATP, dideoxyadenosine triphosphate, reference compound], at HIV RT [1], the “Chain termination mechanism (ICT/DCT)” value is “only inhibits via ICT”. Besides, on HIV RT [2], the “Translocation state of RT” value is given as “mostly in the post-translocation state”.
For “(2R,3S,5R)-5-(4-amino-5-methyl-7H-pyrrolo[2,3-d]pyrimidin-7-yl)-2-ethynyl-2-(hydroxymethyl)tetrahydrofuran-3-ol [Compound 8]”, the IC50 with HIV-1 [3] came to 85.4 nM; in the data set on HIV-1 [5], 58.8 nM. In the data set on HIV-1 [4], the “Persistence ratio (MT4-GFP)” value is reported as 6. Also, the CC50 in the data set on MT4-GFP cells was determined as 38800 nM. Moreover, the “Persistence ratio (PBMC)” value with HIV-1 [6] (IC50B/IC50A, PBMCs) came to 18.
As to `C#C[C@]1(CO)O[C@@H](n2cnc3c(N)nc(F)nc32)C[C@@H]1O` [ISL, 4′-ethynyl-2-fluoro-2′-deoxyadenosine, reference compound], the IC50 with HIV-1 [7] (Human immunodeficiency virus 1, 48 h, read-out: Persistence assay IC50B, MT4-GFP cells) is 25.5 ± 9.96 nM; in the data set on HIV-1 [7] (Human immunodeficiency virus 1, read-out: Persistence assay IC50A, MT4-GFP cells) it was 0.89 ± 0.63 nM; in the data set on HIV-1 [9] it was 0.2 nM and 0.23 nM; in the data set with HIV-1 [6] (48 h, read-out: Persistence assay IC50B, PBMCs), 39.7 ± 23.9 nM; in the data set on HIV-1 [6] (read-out: Persistence assay IC50A, PBMCs), 0.8 ± 0.48 nM. The same compound showed a CC50 in [8] of over 42000 nM.
